Data from patent publication US20200002354A1, “HEXAHYDROPYRAZINOBENZ- OR -PYRIDO-OXAZEPINES CARRYING AN OXYGEN-CONTAINING SUBSTITUENT AND USE THEREOF IN THE TREATMENT OF 5-HT2C-DEPENDENT DISORDERS” (AbbVie Deutschland GmbH & Co. KG, priority 2015, published 2020).

Legend:
[1] = target: T1, human 5-HT2A receptor (Homo sapiens, UniProt P28223); test: Human 5-HT2A functional assay (calcium mobilisation in CHO-K1 cells, FLIPR); type: cell-based; details: based on agonism: EC50 5-HT2A/EC50 5-HT2C
T1 construct: expressed in transfected cells; host or cells: CHO-K1
How it was run: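 CHO-K1 cells stably expressing human 5-HT2A, serum-starved overnight and loaded with calcium dye plus 0.07% probenecid, were given compound (10^−10 to 10^−5 M) for agonism, then serotonin at 3×10^−8 M after 8 min for antagonism. FLIPR calcium responses were normalised to serotonin maximum, and EC50/IC50 came from four-parameter fits, with Kb via Cheng–Prusoff.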

[2] = Metabolic stability in human liver microsomes, unbound intrinsic clearance; type: in vitro ADME; details: liver microsomes, pH 7.4; unbound intrinsic clearance (human); Clint unbound = Cl int/fu mic; read-out: Cl int, mic unb. (h)
How it was run: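 Compound at 0.5 μM incubated with human liver microsomes (0.25 mg/mL) in 0.05 M potassium phosphate pH 7.4 at 37° C, started with 1.0 mM NADPH; sampled 0–30 min, parent quantified by LC-MS/MS. First-order t1/2 gives CLint (uL/min/mg), scaled to L/h/kg; unbound CLint = CLint/fu mic.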

[3] = target: T2, 5-HT2C receptor (Homo sapiens, UniProt P28335); test: Human 5-HT2C functional assay (beta-arrestin2 recruitment, U2OS_HTR2C_β-Arrestin cells); type: cell-based; details: for EC50: Potency (EC50 5-HT2C) in functional assay, agonism, read-out: EC50 5-HT2C; for Emax: relative efficacy vs maximal effect induced by 5-HT (defined as 100%)
T2 construct: host or cells: U2OS
How it was run: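 U2OS cells expressing human 5-HT2C with β-arrestin2 enzyme-fragment complementation; switched to 1% serum medium 24 h after plating, compounds added next day for 1.5 h. β-Galactosidase activity read by chemiluminescence; response expressed as percent of 10 μM 5-HT or maximal 5-HT effect (relative efficacy).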

[4] = target: T3, human 5-HT2B receptor (Homo sapiens, UniProt P41595); test: Human 5-HT2B functional assay (calcium mobilisation in CHO-FlpIn cells, FLIPR); type: cell-based; details: based on agonism: EC50 5-HT2B/EC50 5-HT2C
T3 construct: expressed in transfected cells; host or cells: CHO-FlpIn
How it was run: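 CHO-FlpIn cells stably expressing human 5-HT2B, serum-starved 4 h and Ca5 dye-loaded, received compound (10^−10 to 10^−5 M) for agonism, then 10^−8 M serotonin after 8 min for antagonism; peak calcium read by FLIPR. Efficacy as % serotonin maximum; EC50/IC50 from four-parameter fits, Kb via Cheng–Prusoff.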

T2 sequence (P28335 33-458): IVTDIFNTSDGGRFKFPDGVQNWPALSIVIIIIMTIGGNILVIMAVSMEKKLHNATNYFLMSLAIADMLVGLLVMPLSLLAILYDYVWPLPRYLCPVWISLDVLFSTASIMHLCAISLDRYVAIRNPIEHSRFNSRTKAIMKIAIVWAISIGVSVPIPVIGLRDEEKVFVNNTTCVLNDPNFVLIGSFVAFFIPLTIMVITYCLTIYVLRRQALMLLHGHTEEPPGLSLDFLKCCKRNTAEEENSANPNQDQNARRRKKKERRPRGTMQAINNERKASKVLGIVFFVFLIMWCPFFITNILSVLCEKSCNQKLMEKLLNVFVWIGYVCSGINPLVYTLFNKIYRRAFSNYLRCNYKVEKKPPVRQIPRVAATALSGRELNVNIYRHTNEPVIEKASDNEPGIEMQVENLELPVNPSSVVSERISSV
T2 sequence (P32121 whole entry partner): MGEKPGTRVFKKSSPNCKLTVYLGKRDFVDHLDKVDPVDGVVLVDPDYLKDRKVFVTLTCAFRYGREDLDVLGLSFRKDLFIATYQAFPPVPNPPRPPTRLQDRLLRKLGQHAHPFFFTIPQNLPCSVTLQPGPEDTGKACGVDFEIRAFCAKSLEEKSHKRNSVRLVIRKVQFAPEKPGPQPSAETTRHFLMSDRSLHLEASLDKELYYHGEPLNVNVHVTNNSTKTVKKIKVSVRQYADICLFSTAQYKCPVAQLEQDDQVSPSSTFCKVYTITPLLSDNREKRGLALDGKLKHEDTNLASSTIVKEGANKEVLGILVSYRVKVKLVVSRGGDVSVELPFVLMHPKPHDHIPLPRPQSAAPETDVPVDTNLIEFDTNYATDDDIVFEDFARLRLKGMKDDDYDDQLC
T3 sequence (P41595 whole entry): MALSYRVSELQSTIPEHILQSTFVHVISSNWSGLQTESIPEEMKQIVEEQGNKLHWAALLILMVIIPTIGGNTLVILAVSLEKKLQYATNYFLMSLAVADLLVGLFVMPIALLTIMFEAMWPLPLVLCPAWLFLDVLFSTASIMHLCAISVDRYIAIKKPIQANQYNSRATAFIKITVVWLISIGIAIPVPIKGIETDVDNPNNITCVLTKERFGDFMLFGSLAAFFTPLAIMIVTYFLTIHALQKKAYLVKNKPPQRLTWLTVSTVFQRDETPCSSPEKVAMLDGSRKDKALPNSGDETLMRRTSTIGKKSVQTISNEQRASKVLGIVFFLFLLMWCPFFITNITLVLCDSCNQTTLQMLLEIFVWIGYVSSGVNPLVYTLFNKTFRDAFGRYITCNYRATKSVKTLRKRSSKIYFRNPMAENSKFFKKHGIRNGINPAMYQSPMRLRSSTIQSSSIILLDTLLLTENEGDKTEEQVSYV
T1 sequence (P28223 whole entry): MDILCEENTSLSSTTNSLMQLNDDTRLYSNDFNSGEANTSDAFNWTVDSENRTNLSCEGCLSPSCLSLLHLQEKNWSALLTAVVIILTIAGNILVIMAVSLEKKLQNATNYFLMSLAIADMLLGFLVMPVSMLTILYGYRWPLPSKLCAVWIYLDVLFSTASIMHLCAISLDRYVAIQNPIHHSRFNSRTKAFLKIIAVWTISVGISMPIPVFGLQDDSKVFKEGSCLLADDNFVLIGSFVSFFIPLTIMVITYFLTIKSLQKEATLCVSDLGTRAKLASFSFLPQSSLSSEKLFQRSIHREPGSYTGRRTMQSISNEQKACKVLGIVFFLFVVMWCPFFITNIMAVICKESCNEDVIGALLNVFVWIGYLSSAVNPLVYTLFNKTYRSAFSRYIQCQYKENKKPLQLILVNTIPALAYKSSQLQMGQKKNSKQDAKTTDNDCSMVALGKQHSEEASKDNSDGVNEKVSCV

| SMILES | Selectivity over 5-HT2A [1] | CLint scaled at 0.5 μM [2] [mL/min/kg] | EC50 [3] [nM] | Emax [3] [%] | Selectivity over 5-HT2B [4] |
| --- | --- | --- | --- | --- | --- |
| COC[C@@H]1C[C@@H]2CNCCN2c2cc(C)cc(F)c2O1 [Example 33, (4aR,6S)-8-Fluoro-6-(methoxymethyl)-10-methyl-2,3,4,4a,5,6-hexahydro-1H-pyrazino[2,1-d][1,5]benzoxazepine] | + (from 10 to 30) | < 83.3 | 200 to 1000 | 50 to 70 | + (from 10 to 30) |
| C#Cc1cc(F)cc2c1O[C@H](COC)C[C@@H]1CNCCN21.Cl [Example 34, (4aR,6S)-8-Ethynyl-10-fluoro-6-(methoxymethyl)-2,3,4,4a,5,6-hexahydro-1H-pyrazino[2,1-d][1,5]benzoxazepine hydrochloride] | +++ (>100) | < 83.3 | < 20 | > 70 | + (from 10 to 30) |
| COC[C@H]1C[C@@H]2CNCCN2c2cc(F)cc(Cl)c2O1.Cl [Example 35, (4aR,6R)-8-Chloro-10-fluoro-6-(methoxymethyl)-2,3,4,4a,5,6-hexahydro-1H-pyrazino[2,1-d][1,5]benzoxazepine hydrochloride] | ++ (from >30 to 100) | < 83.3 | 20 to 200 | > 70 | + (from 10 to 30) |
| C#Cc1cc(F)c2c(c1)N1CCNC[C@H]1C[C@@H](COC)O2.O=C(O)C(O)C(O)C(=O)O [Example 36, (4aR,6S)-10-Ethynyl-8-fluoro-6-(methoxymethyl)-2,3,4,4a,5,6-hexahydro-1H-pyrazino[2,1-d][1,5]benzoxazepine; (2R,3R)-2,3-dihydroxybutanedioic acid] | + (from 10 to 30) | 83.3 to 833 | 200 to 1000 | 50 to 70 | + (from 10 to 30) |
| COC[C@H]1C[C@@H]2CNCCN2c2c(F)c(F)cc(Cl)c2O1.Cl [Example 37, (4aR,6R)-8-Chloro-10,11-difluoro-6-(methoxymethyl)-2,3,4,4a,5,6-hexahydro-1H-pyrazino[2,1-d][1,5]benzoxazepine hydrochloride] | + (from 10 to 30) | < 83.3 | 200 to 1000 | 30 to 50 | + (from 10 to 30) |
| COC[C@@H]1C[C@@H]2CNCCN2c2cc(F)c(F)c(Cl)c2O1.Cl [Example 38, (4aR,6S)-8-Chloro-9,10-difluoro-6-(methoxymethyl)-2,3,4,4a,5,6-hexahydro-1H-pyrazino[2,1-d][1,5]benzoxazepine hydrochloride] | ++ (from >30 to 100) | < 83.3 | < 20 | > 70 | ++ (from >30 to 100) |
| Cc1ccc2c(c1F)O[C@H](CO)C[C@@H]1CNCCN21 [Example 39, [(4aR,6S)-8-Fluoro-9-methyl-2,3,4,4a,5,6-hexahydro-1H-pyrazino[2,1-d][1,5]benzoxazepin-6-yl]methanol] | ++ (from >30 to 100) | < 83.3 | 20 to 200 | 50 to 70 | ++ (from >30 to 100) |
| C#Cc1cc(F)c(F)c2c1O[C@H](COC)C[C@@H]1CNCCN21.Cl [Example 40, (4aR,6S)-8-Ethynyl-10,11-difluoro-6-(methoxymethyl)-2,3,4,4a,5,6-hexahydro-1H-pyrazino[2,1-d][1,5]benzoxazepine hydrochloride] | +++ (>100) | < 83.3 | < 20 | > 70 | + (from 10 to 30) |
| COC[C@@H]1C[C@@H]2CNCCN2c2cc(C(F)(F)F)cc(Cl)c2O1 [Example 45, (4aR,6S)-8-Chloro-6-(methoxymethyl)-10-(trifluoromethyl)-2,3,4,4a,5,6-hexahydro-1H-pyrazino[2,1-d][1,5]benzoxazepine] | +++ (>100) | 83.3 to 833 | 20 to 200 | > 70 | +++ (>100) |
| COC[C@@H]1C[C@@H]2CNCCN2c2c(cc(F)c(F)c2F)O1.Cl [Example 47, (4aR,6S)-9,10,11-Trifluoro-6-(methoxymethyl)-2,3,4,4a,5,6-hexahydro-1H-pyrazino[2,1-d][1,5]benzoxazepine hydrochloride] | +++ (>100) | < 83.3 | 20 to 200 | > 70 | +++ (>100) |
| COC[C@@H]1C[C@@H]2CNCCN2c2ccc(F)cc2O1.Cl [Example 51, (4aR,6S)-9-Fluoro-6-(methoxymethyl)-2,3,4,4a,5,6-hexahydro-1H-pyrazino[2,1-d][1,5]benzoxazepine hydrochloride] | + (from 10 to 30) | < 83.3 | 200 to 1000 | 50 to 70 | ++ (from >30 to 100) |
| COC[C@@H]1C[C@@H]2CNCCN2c2cc(Cl)cc(Cl)c2O1 [Example 52, (4aR,6S)-8,10-Dichloro-6-(methoxymethyl)-2,3,4,4a,5,6-hexahydro-1H-pyrazino[2,1-d][1,5]benzoxazepine] | +++ (>100) | < 83.3 | 20 to 200 | > 70 | ++ (from >30 to 100) |
| COC[C@@H]1C[C@@H]2CNCCN2c2c(F)c(F)c(OC)c(Cl)c2O1.Cl [Example 53, (4aR,6S)-8-Chloro-10,11-difluoro-9-methoxy-6-(methoxymethyl)-2,3,4,4a,5,6-hexahydro-1H-pyrazino[2,1-d][1,5]benzoxazepine hydrochloride] | +++ (>100) | 83.3 to 833 | 20 to 200 | 50 to 70 | +++ (>100) |
| COC[C@@H]1C[C@@H]2CNCCN2c2c(F)cccc2O1.Cl [Example 54, (4aR,6S)-11-Fluoro-6-(methoxymethyl)-2,3,4,4a,5,6-hexahydro-1H-pyrazino[2,1-d][1,5]benzoxazepine hydrochloride] | + (from 10 to 30) | < 83.3 | 200 to 1000 | 30 to 50 | + (from 10 to 30) |
| COC[C@@H]1C[C@@H]2CNCCN2c2c(F)c(F)cc(C(F)(F)F)c2O1.Cl [Example 56, (4aR,6S)-10,11-Difluoro-6-(methoxymethyl)-8-(trifluoromethyl)-2,3,4,4a,5,6-hexahydro-1H-benzo[b]pyrazino[1,2-d][1,4]oxazepine hydrochloride] | +++ (>100) | < 83.3 | 20 to 200 | > 70 | +++ (>100) |
